Data reported in publication PMC3950855 (British Journal of Cancer, 2014).

Tests used:
[1] = Phase I trial safety: adverse events; type: in vivo, human
CYP2D6 = conditions: ref Hamberg et al, 2011; Filppula et al, 2012; cited from earlier work
[2] = Plasma pharmacokinetics by LC/PDA; conditions: human, in vivo, im, Panobinostat Cmax (mean), 20 mg
[3] = 20 mg thrice weekly; ref Fukutomi et al (2012); cited from earlier work
[4] = panobinostat + IM 400 mg, 12 patients

## Cc1[nH]c2ccccc2c1CCNCc1ccc(/C=C/C(=O)NO)cc1 [panobinostat, Panobinostat]
[1]; panobinostat 20 mg + IM 400 mg
  Headache, No. of patients Total: 1
  Hypothyroidism, No. of patients Grade 1: 3
  Hypothyroidism, No. of patients Total: 3
  Lymphopenia, No. of patients Grade 3: 1
  Lymphopenia, No. of patients Total: 1
  Muscle spasms, No. of patients Grade 1: 1
  Muscle spasms, No. of patients Grade 2: 1
  Muscle spasms, No. of patients Total: 2
  Nausea, No. of patients Grade 1: 1
  Nausea, No. of patients Grade 2: 1
  Nausea, No. of patients Total: 2
  Neutropenia, No. of patients Grade 4: 1
  Neutropenia, No. of patients Total: 1
  Oedema, No. of patients Grade 1: 2
  Oedema, No. of patients Total: 2
  Thrombocytopenia, No. of patients Grade 1: 3
  Thrombocytopenia, No. of patients Grade 2: 1
  Thrombocytopenia, No. of patients Grade 3: 1
  Thrombocytopenia, No. of patients Grade 4: 1
  Thrombocytopenia, No. of patients Total: 6
  Vomiting, No. of patients Grade 2: 1
  Vomiting, No. of patients Total: 1
  Weight loss, No. of patients Grade 1: 1
  Weight loss, No. of patients Grade 2: 1
  Weight loss, No. of patients Total: 2
[1]; panobinostat 30 mg + IM 400 mg
  Anaemia, No. of patients Grade 2: 2
  Anaemia, No. of patients Total: 2
  Chills, No. of patients Total: 0
  Constipation, No. of patients Grade 1: 1
  Constipation, No. of patients Total: 1
  Creatinine, No. of patients Grade 1: 1
  Creatinine, No. of patients Grade 2: 1
  Creatinine, No. of patients Total: 2
  Diarrhoea, No. of patients Grade 1: 1
  Diarrhoea, No. of patients Total: 1
  Dizziness, No. of patients Grade 1: 1
  Dizziness, No. of patients Total: 1
  Dry mouth, No. of patients Total: 0
  Dry skin, No. of patients Grade 1: 1
  Dry skin, No. of patients Total: 1
  Dysgeusia, No. of patients Total: 0
  Dyspepsia, No. of patients Grade 1: 1
  Dyspepsia, No. of patients Total: 1
  Fatigue, No. of patients Grade 2: 2
  Fatigue, No. of patients Total: 2
  Headache, No. of patients Grade 2: 1
  Headache, No. of patients Total: 1
  Hypothyroidism, No. of patients Total: 0
  Lymphopenia, No. of patients Grade 2: 1
  Lymphopenia, No. of patients Total: 1
  Muscle spasms, No. of patients Grade 2: 1
  Muscle spasms, No. of patients Total: 1
  Nausea, No. of patients Grade 1: 1
  Nausea, No. of patients Grade 2: 2
  Nausea, No. of patients Grade 3: 1
  Nausea, No. of patients Total: 4
  Neutropenia, No. of patients Grade 2: 1
  Neutropenia, No. of patients Total: 1
  Oedema, No. of patients Grade 1: 1
  Oedema, No. of patients Total: 1
  Thrombocytopenia, No. of patients Grade 3: 3
  Thrombocytopenia, No. of patients Grade 4: 2
  Thrombocytopenia, No. of patients Total: 5
  Vomiting, No. of patients Grade 1: 2
  Vomiting, No. of patients Grade 2: 1
  Vomiting, No. of patients Total: 3
  Weight loss, No. of patients Grade 2: 1
  Weight loss, No. of patients Total: 1
[1]; panobinostat + IM 400 mg
  Grade 3 and 4 toxicities clearly attributable to study treatments: thrombocytopenia, neutropenia and nausea
  severe hepatotoxicity: did not occur
[1]; [4]
  patients with at least one adverse event: All patients
  treatment-related deaths: no treatment-related deaths
CYP2D6
  CYP2D6 inhibition: weak inhibitor
[2]; D1, with IM 400 mg
  Cmax: 36.1 nM
[2]; D8, with IM 400 mg
  Cmax: 47.5 nM
[2]; D15, with IM 400 mg
  Cmax: 44.6 nM
[3]
  Cmax plasma level, panobinostat monotherapy: 10 ng /ml^−1
